In US20230265151A1, “GIP/GLP1 CO-AGONIST COMPOUNDS” (priority 2020, published 2023) one finds Emax and EC50 data, which are given here for four compounds.

Read-outs that look alike come from different tables or passages of the source.

Common to all, as to assay type: cell-based
In test [1] the target is T1, hGIPR (Homo sapiens, UniProt P48546).
T1 construct: expressed in transfected cells
T1 sequence (P48546 22-466): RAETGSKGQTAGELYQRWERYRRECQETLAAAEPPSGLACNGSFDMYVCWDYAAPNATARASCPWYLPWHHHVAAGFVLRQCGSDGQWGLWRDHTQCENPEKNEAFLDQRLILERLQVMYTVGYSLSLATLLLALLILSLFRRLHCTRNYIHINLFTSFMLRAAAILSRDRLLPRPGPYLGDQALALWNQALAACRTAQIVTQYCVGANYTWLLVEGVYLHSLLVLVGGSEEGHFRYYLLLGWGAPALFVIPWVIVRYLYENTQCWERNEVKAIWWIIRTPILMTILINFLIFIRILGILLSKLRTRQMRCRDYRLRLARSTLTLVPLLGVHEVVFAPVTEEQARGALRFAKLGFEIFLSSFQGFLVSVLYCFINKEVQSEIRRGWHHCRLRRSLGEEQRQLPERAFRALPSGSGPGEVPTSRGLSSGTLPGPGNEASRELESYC
Description: Functional cAMP formation (HTRF) in HEK-293 clonal cells expressing hGIPR, 0.1% bovine casein, without or with 1.0% human serum albumin. The settings on record: for EC50: cAMP, 0.1% bovine casein (no human serum albumin), geometric mean. The method, boiled down: (§1)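 Readings of the HTRF 665/620 nm ratio, which falls as cAMP rises, were converted to nM cAMP using a standard curve after 30 min peptide exposure at 37° C.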
(cAMP levels reflect the balance of adenylyl cyclase and phosphodiesterase activity.)

Test [2] concerns the target T2, hGCGR (Homo sapiens, UniProt P47871).
T2 construct: expressed in transfected cells
Description: Functional cAMP formation (HTRF) in HEK-293 clonal cells expressing hGCGR, 0.1% bovine casein, without or with 1.0% human serum albumin. A digest of the protocol:
as §1

In test [3] the target is hGLP-1R (Homo sapiens, UniProt P43220). In words: Functional cAMP formation (HTRF) in HEK-293 clonal cells expressing hGLP-1R, 0.1% bovine casein, without or with 1.0% human serum albumin. Conditions: 37° C.; for EC50: read-out: hGLP-1R EC50, nM (SEM, n). Further details: expressed in transfected cells. A digest of the protocol:
as §1

The mark [4] stands for this setting: HEK293, cAMP, 37° C., 0.1% bovine casein, percent of maximal response to GIP(1-42)NH2, arithmetic mean, read-out: hGIPR Emax, % ± SEM.
Setting [5] is: 37° C., read-out: hGIPR EC50, nM (SEM, n).
Setting [6] is: 0.1% bovine casein and 1.0% human serum albumin, 37° C., geometric mean, read-out: hGCGR EC50, nM (SEM, n).
The mark [7] stands for this setting: cAMP, 37° C., 0.1% bovine casein (no human serum albumin), geometric mean, read-out: hGCGR EC50, nM (SEM, n).
Where [8] appears, read: cAMP, 0.1% bovine casein (no human serum albumin), geometric mean.

Sequence of hGLP-1R (P43220 24-463): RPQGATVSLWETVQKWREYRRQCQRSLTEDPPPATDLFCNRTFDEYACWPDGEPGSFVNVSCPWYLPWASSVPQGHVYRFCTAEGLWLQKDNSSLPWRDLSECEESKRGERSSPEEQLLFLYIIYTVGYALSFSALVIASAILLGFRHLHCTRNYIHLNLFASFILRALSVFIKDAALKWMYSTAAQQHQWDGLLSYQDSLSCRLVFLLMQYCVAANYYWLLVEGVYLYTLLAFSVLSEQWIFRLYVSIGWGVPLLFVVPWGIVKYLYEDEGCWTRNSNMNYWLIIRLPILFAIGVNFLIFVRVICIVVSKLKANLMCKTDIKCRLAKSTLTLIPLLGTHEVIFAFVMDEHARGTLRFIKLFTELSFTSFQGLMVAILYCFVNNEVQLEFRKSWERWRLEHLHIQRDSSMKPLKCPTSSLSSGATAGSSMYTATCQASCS
T2 sequence (P47871 26-477): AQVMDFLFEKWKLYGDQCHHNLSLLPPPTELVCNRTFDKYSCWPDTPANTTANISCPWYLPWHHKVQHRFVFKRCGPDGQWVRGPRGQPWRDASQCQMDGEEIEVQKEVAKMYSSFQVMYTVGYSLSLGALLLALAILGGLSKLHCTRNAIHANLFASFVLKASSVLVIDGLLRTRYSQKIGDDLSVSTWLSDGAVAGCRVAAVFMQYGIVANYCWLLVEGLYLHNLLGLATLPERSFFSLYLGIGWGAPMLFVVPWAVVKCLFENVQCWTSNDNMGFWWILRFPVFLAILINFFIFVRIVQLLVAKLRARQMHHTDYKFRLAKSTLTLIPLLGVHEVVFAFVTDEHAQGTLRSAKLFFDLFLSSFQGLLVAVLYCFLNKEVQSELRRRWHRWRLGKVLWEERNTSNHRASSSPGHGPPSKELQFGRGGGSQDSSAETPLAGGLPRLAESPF

In the case of `CC[C@H](C)[C@H](NC(=O)[C@H](CC(C)C)NC(=O)[C@](C)(Cc1ccc(O)cc1)NC(=O)[C@H](CCC(=O)O)NC(=O)[C@@H](NC(=O)[C@H](Cc1ccccc1)NC(=O)[C@H](CCC(=O)O)NC(=O)C(C)(C)NC(=O)[C@H](CCC(N)=O)NC(=O)[C@H](C)NC(=O)[C@H](CCCCNC(=O)COCCOCCNC(=O)COCCOCCNC(=O)CC[C@H](NC(=O)CCCCCCCCCCCCC(=O)O)C(=O)O)NC(=O)[C@H](CCCN)NC(=O)[C@H](CC(=O)O)NC(=O)[C@H](CC(C)C)NC(=O)[C@](C)(CC(C)C)NC(=O)[C@@H](NC(=O)[C@H](CO)NC(=O)[C@H](Cc1ccncc1)NC(=O)[C@H](CC(=O)O)NC(=O)[C@H](CO)NC(=O)[C@@H](NC(=O)[C@](C)(Cc1ccccc1F)NC(=O)[C@@H](NC(=O)CNC(=O)[C@H](CCC(=O)O)NC(=O)C(C)(C)NC(=O)[C@@H](N)Cc1ccc(O)cc1)[C@@H](C)O)[C@@H](C)O)[C@@H](C)CC)[C@@H](C)CC)C(=O)N[C@@H](CCC(=O)O)C(=O)NCC(=O)NCC(=O)N[C@@H](CCCCNC(=O)COCCOCCNC(=O)COCCOCCNC(=O)CC[C@H](NC(=O)CCCCCCCCCCCCC(=O)O)C(=O)O)C(=O)N[C@@H](CO)C(=O)N[C@@H](CO)C(=O)NCC(=O)N[C@@H](C)C(=O)N1CCC[C@H]1C(=O)N1CCC[C@H]1C(=O)N1CCC[C@H]1C(=O)N[C@@H](CO)C(N)=O` [Example 158], the Emax in test [1] (HEK293, read-out: hGIPR Emax, % ± SEM, percent of maximal response to GIP(1-42)NH2, 37° C., 0.1% bovine casein, arithmetic mean) worked out at 93.4%; in test [3] (HEK293, read-out: hGLP-1R Emax, % ± SEM, percent of maximal response to GLP-1(7-36)NH2, 0.1% bovine casein, arithmetic mean), 87.2%. Moreover, the EC50 in test [1] (hGIPR EC50, nM (SEM, n), incubated at 37° C.) is 0.0204 nM; in test [2] (hGCGR EC50, nM (SEM, n), cAMP, incubated at 37° C., 0.1% bovine casein (no human serum albumin), geometric mean), greater than 9950 nM.

Turning to `CC[C@H](C)[C@H](NC(=O)[C@H](CCCN)NC(=O)[C@H](CC(=O)O)NC(=O)[C@H](CC(C)C)NC(=O)[C@](C)(CC(C)C)NC(=O)[C@@H](NC(=O)C(C)(C)NC(=O)[C@@H](NC(=O)[C@H](CC(=O)O)NC(=O)[C@H](CO)NC(=O)[C@@H](NC(=O)[C@](C)(Cc1ccccc1F)NC(=O)[C@@H](NC(=O)CNC(=O)[C@H](CCC(=O)O)NC(=O)C(C)(C)NC(=O)[C@@H](N)Cc1ccc(O)cc1)[C@@H](C)O)[C@@H](C)O)C(C)C)[C@@H](C)CC)C(=O)N[C@@H](C)C(=O)N[C@@H](CCC(N)=O)C(=O)NC(C)(C)C(=O)N[C@@H](CCC(=O)O)C(=O)N[C@@H](Cc1ccccc1)C(=O)N[C@H](C(=O)N[C@@H](CCCCNC(=O)COCCOCCNC(=O)COCCOCCNC(=O)CC[C@H](NC(=O)CCCCCCCCCCCCC(=O)O)C(=O)O)C(=O)N[C@@](C)(Cc1ccc(O)cc1)C(=O)N[C@@H](CC(C)C)C(=O)N[C@H](C(=O)N[C@@H](CCCCNC(=O)COCCOCCNC(=O)COCCOCCNC(=O)CC[C@H](NC(=O)CCCCCCCCCCCCC(=O)O)C(=O)O)C(=O)NCC(=O)NCC(=O)N1CCC[C@H]1C(=O)N[C@@H](CO)C(=O)N[C@@H](CO)C(=O)NCC(=O)N[C@@H](C)C(=O)N1CCC[C@H]1C(=O)N1CCC[C@H]1C(=O)N1CCC[C@H]1C(=O)N[C@@H](CO)C(N)=O)[C@@H](C)CC)[C@@H](C)CC` [Example 304], the Emax in test [1] (setting [4]) stood at 110%; in test [3] (HEK293, 0.1% bovine casein and 1.0% human serum albumin, percent of maximal response to GLP-1(7-36)NH2, read-out: hGLP-1R Emax, % ± SEM), 98.3%. The EC50 is 0.047 nM in test [1] (setting [5]), greater than 9950 nM in test [2] (setting [6]), greater than 9950 nM in test [2] (setting [7]) and 0.474 nM in test [3] (setting [8]).

`CC[C@H](C)[C@H](NC(=O)[C@H](CC(C)C)NC(=O)[C@](C)(Cc1ccc(O)cc1)NC(=O)[C@@H](CCC(=O)O)NC(=O)[C@@H](NC(=O)[C@H](Cc1ccccc1)NC(=O)[C@H](CCC(=O)O)NC(=O)C(C)(C)NC(=O)[C@H](CCC(N)=O)NC(=O)[C@H](C)NC(=O)[C@H](CCCCNC(=O)COCCOCCNC(=O)COCCOCCNC(=O)CC[C@H](NC(=O)CCCCCCCCCCCCC(=O)O)C(=O)O)NC(=O)[C@H](CCCN)NC(=O)[C@H](CC(=O)O)NC(=O)[C@H](CC(C)C)NC(=O)[C@](C)(CC(C)C)NC(=O)[C@@H](NC(=O)[C@H](CN)NC(=O)[C@@H](NC(=O)[C@H](CC(=O)O)NC(=O)[C@H](CO)NC(=O)[C@@H](NC(=O)[C@](C)(Cc1ccccc1F)NC(=O)[C@@H](NC(=O)CNC(=O)[C@H](CCC(=O)O)NC(=O)C(C)(C)NC(=O)[C@@H](N)Cc1ccc(O)cc1)[C@@H](C)O)[C@@H](C)O)C(C)C)[C@@H](C)CC)[C@@H](C)CC)C(=O)N[C@@H](CCC(=O)O)C(=O)NCC(=O)NCC(=O)N[C@@H](CCCCNC(=O)COCCOCCNC(=O)COCCOCCNC(=O)CC[C@H](NC(=O)CCCCCCCCCCCCC(=O)O)C(=O)O)C(=O)N[C@@H](CO)C(=O)N[C@@H](CO)C(=O)NCC(=O)N[C@@H](C)C(=O)N1CCC[C@H]1C(=O)N1CCC[C@H]1C(=O)N1CCC[C@H]1C(=O)N[C@@H](CO)C(N)=O` [Example 201]: the Emax in test [1] (HEK293, 0.1% bovine casein and 1.0% human serum albumin, 37° C., percent of maximal response to GIP(1-42)NH2, read-out: hGIPR Emax, % ± SEM) stood at 80.5%; in test [1] (HEK293, percent of maximal response to GIP(1-42)NH2, 37° C., 0.1% bovine casein, arithmetic mean, read-out: hGIPR Emax, % ± SEM), 92.2 ± 3.26%; in test [3] (HEK293, percent of maximal response to GLP-1(7-36)NH2, 0.1% bovine casein, arithmetic mean, read-out: hGLP-1R Emax, % ± SEM), 105 ± 4.51%. Besides, the EC50 in test [2] (setting [6]) was greater than 9950 nM; in test [2] (cAMP, incubated at 37° C., 0.1% bovine casein (no human serum albumin), geometric mean, read-out: hGCGR EC50, nM (SEM, n)) it was greater than 9950 nM; in test [3] (0.1% bovine casein and 1.0% human serum albumin, geometric mean), 25.1 nM.

Regarding `CC[C@H](C)[C@H](NC(=O)[C@H](CC(C)C)NC(=O)[C@](C)(Cc1ccc(O)cc1)NC(=O)[C@@H](CCC(=O)O)NC(=O)[C@@H](NC(=O)[C@H](Cc1ccccc1)NC(=O)[C@H](CCCN)NC(=O)C(C)(C)NC(=O)[C@H](CCC(N)=O)NC(=O)[C@H](C)NC(=O)[C@H](CCCCNC(=O)COCCOCCNC(=O)COCCOCCNC(=O)CC[C@H](NC(=O)CCCCCCCCCCCCC(=O)O)C(=O)O)NC(=O)[C@H](CCCN)NC(=O)[C@H](CC(=O)O)NC(=O)[C@H](CC(C)C)NC(=O)[C@](C)(CC(C)C)NC(=O)[C@@H](NC(=O)C(C)(C)NC(=O)[C@H](Cc1ccncc1)NC(=O)[C@H](CC(=O)O)NC(=O)[C@H](CO)NC(=O)[C@@H](NC(=O)[C@](C)(Cc1ccccc1F)NC(=O)[C@@H](NC(=O)CNC(=O)[C@H](CCC(=O)O)NC(=O)C(C)(C)NC(=O)[C@@H](N)Cc1ccc(O)cc1)[C@@H](C)O)[C@@H](C)O)[C@@H](C)CC)[C@@H](C)CC)C(=O)N[C@@H](CCCCNC(=O)COCCOCCNC(=O)COCCOCCNC(=O)CC[C@H](NC(=O)CCCCCCCCCCCCC(=O)O)C(=O)O)C(=O)NCC(=O)NCC(=O)N1CCC[C@H]1C(=O)N[C@@H](CO)C(=O)N[C@@H](CO)C(=O)NCC(=O)N[C@@H](C)C(=O)N1CCC[C@H]1C(=O)N1CCC[C@H]1C(=O)N1CCC[C@H]1C(=O)N[C@@H](CO)C(N)=O` [Example 348], the maximal effect (Emax) was 79.3% in test [1] (HEK293, cAMP, 37° C., 0.1% bovine casein and 1.0% human serum albumin, percent of maximal response to GIP(1-42)NH2, read-out: hGIPR Emax, % ± SEM); 95.9% in test [1] (setting [4]); 98% in test [3] (HEK293, cAMP, 0.1% bovine casein and 1.0% human serum albumin, percent of maximal response to GLP-1(7-36)NH2, read-out: hGLP-1R Emax, % ± SEM). The EC50 was 0.0228 nM in test [1] (setting [5]); greater than 9950 nM in test [2] (setting [7]); greater than 9950 nM in test [2] (cAMP, 37° C., 0.1% bovine casein and 1.0% human serum albumin, geometric mean (SEM, n), read-out: hGCGR EC50, nM (SEM, n)); 0.805 nM in test [3] (setting [8]); 8.95 nM in test [3] (cAMP, 0.1% bovine casein and 1.0% human serum albumin, geometric mean (SEM, n)).

For orientation: Emax means the maximal effect, on the per cent scale that the assay sets. For orientation: EC50 means the concentration that produces a half-maximal response.
